Measurements from paper PMC12154549, “Structure-based design of an aromatic helical foldamer–protein interface” (Chemical Science, 2025).
Like-named read-outs stand apart in the source and are kept apart here.

Tests used:
HCAII [1] = molecular target: T1, HCAII (Homo sapiens, UniProt P00918); design: method as in PMID 30395443; conditions: HCAII immobilized; 2:98 DMSO/PBS pH 7.4, 25 °C; ref 8a; read-out: KD by SPR; cited from earlier work
T1 construct: made in house

HCAII [2] = molecular target: T1, HCAII; experiment: Fluorescence competition assay: HCAII titrated into foldamer or ligand plus probe 23; conditions: [competing species] = [23] = 50 nM; 50 mM HEPES pH 7.2; 1:1 binding isotherm, 380-600 nm; repeatable within ±15%
Text: We turned to a recently published assay that exploits the quenching of the fluorescence of nanomolar ligand 23 upon binding to HCAII (Fig. 8a).[32] The low KD value of 23 makes it suitable to perform competition (displacement) assays with compounds binding in the same concentration range. However, some optimization of the assay was required to perform experiments with foldamer-containing ligands because the foldamers absorb both at the excitation (373 nm) and emission (400–450 nm) wavelengths of 23. Performing classical direct displacement titrations where a foldamer is added to a solution containing 23 and HCAII would be complicated by variable inner filter effects. […] For fluorescence measurements: 50 mM HEPES (4-(2-hydroxyethyl)-1-piperazineethanesulfonic acid) at pH 7.2. […] It appears that the fluorescence drops upon adding HCAII, i.e. that ligand 23 binds to HCAII, in presence of the foldamer faster than predicted by the binding model. A better fit can be artificially obtained by inputting HCAII concentrations 20% larger than those measured or foldamer concentrations 20% lower than those measured in the curve fitting program. […]
4.2 Fluorescence binding assay […]
2. To the solution of 23 (50 nM) in HEPES buffer (50 mM, pH 7.2) in the fluorescence cuvette (2 mL), incremental volumes of a stock solution of HCAII (11 µM) in HEPES buffer were added. […]

HCAII [3] = molecular target: T1, HCAII; experiment: Direct fluorescence titration of probe 23 with HCAII; type: binding; conditions: 23 50 nM, 50 mM HEPES pH 7.2, RT, 1:1 model; read-out: KD of 23·HCAII complex
Description: 4.2 Fluorescence binding assay
This fluorescence assay was adapted from the paper of Anzenbacher.18 All fluorescence titrations were done in aqueous 50 mM HEPES buffer (pH = 7.2) at room temperature , without degassing of the samples and using a qua rtz fluorescence cuvette with 1 cm path length on Varian Cary Eclipse Spectrophotometer 05813. The titration assays were carried out in two parts: 1) sensor - protein titration (Figure S21); 2) sensor-foldamer competition assay (Figure S24). Several experiments were repeated and validated a reproducibility within 15% error.
Figure S21. Schematic procedure of the titration experiment between indicator 23 and HCAII (adapted from literature18).
4.2.1 KD measurement of the 23•HCAII complex
1. […]
2. To the solution of 23 (50 nM) in HEPES buffer (50 mM, pH 7.2) in the fluorescence cuvette (2 mL), incremental volumes of a stock solution of HCAII (11 µM) in HEPES buffer were added.
After each addition and gentle agitation, the resulting mixture was incubated for 5 min at RT. The intensity of fluorescence (IF) was then recorded from 380 nm to 600 nm (λex = 373 nm).   […]
software.19 For curve fitting, the binding model was set to 1:1. The spectra of all emitting species were recorded from 380 nm to 600 nm (λex = 373 nm) in separate experiments and set as “unknown spectrum”. The KD value was determined considering all the wavelengths recorded. […]

NCCCCOc1cccc(CNC(=O)c2ccc(S(N)(=O)=O)cc2)c1 [ligand 22]
Kd (HCAII [1]): 5 nM | Kd (HCAII [2]): 10 nM

COc1ccc2cc(C(=O)Nc3nnc(S(N)(=O)=O)s3)c(=O)oc2c1 [probe 23]
Kd (HCAII [3]): 1.69 nM
